Test results published in patent US9932327B2, “Rohitukine analogs as cyclin-dependent kinase inhibitors and a process for the preparation thereof” (COUNCIL OF SCIENTIFIC AND INDUSTRIAL RESEARCH, priority 2013, dated 2018).
pIC50: −log10 of the molar value.

Legend:
Format in all cases: cell-based
[1] = test system: PC-3 (Prostate); experiment: Cytotoxicity, MTT assay, PC-3; conditions: for inhibition at 10 µM: read-out: Cell Growth Inhibition (%)
Method: (§1) Compounds proposed in the present invention were evaluated for their cytotoxic effect against panel of six cancer cell line viz. HL-60 (Leukemia), PC-3 (Prostate), A-375 (Melanoma), MIAPaCa-2 (pancreatic), MCF-7 (Breast) and Caco-2 (Colon) using MTT assay. In each well of a 96-well plate, 3×10^3 cells were grown in 100 μL of medium. After 24 h, each test molecules were added to achieve a final concentration of 10 to 0.01 μmol/L, respectively. After 48 h of treatment, 20 μL of 2.5 mg/mL MTT (Organics Research, Inc.) solution in phosphate buffer saline was added to each well. After 48 h, supernatant was removed and formazan crystals were dissolved in 200 μL of DMSO. Absorbance was then measured at 570 nm using an absorbance plate reader (Bio-Rad Microplate Reader). Data are expressed as the percentage of viable cells in treated relative to non-treated conditions.

[2] = test system: MCF-7 (Breast); experiment: Cytotoxicity, MTT assay, MCF-7; conditions: Homo sapiens; for inhibition at 10 µM: MCF7, 10 μM, read-out: Cell Growth Inhibition (%); for pIC50: MCF7
Method: as §1

[3] = test system: A-375 (Melanoma); experiment: Cytotoxicity, MTT assay, A-375; conditions: Homo sapiens; for inhibition at 10 µM: read-out: Cell Growth Inhibition (%)
Method: as §1

[4] = test system: Caco-2 (Colon); experiment: Cytotoxicity, MTT assay, Caco-2; conditions: Homo sapiens; for inhibition at 10 µM: read-out: Cell Growth Inhibition (%)
Method: as §1

[5] = test system: MIAPaCa-2 (pancreatic); experiment: Cytotoxicity, MTT assay, MIAPaCa-2; conditions: Homo sapiens, MIA PaCa-2, read-out: Cell Growth Inhibition (%)
Method: as §1

[6] = test system: HL-60 (Leukemia); experiment: Cytotoxicity, MTT assay, HL-60; conditions: Homo sapiens; for inhibition at 10 µM: read-out: Cell Growth Inhibition (%)
Method: as §1

SMILES: Cc1cc(=O)c2c(O)cc(OCc3ccccc3)c(C3CCN(C)CC3O)c2o1 (centres unmarked) [Compound 2, 7-(benzyloxy)-5-hydroxy-8-(3-hydroxy-1-methylpiperidin-4-yl)-2-methyl-4H-chromen-4-one]
- inhibition at 10 µM [1]: 41%
- inhibition at 10 µM [2]: 1.44%
- inhibition at 10 µM [3]: 27.8%
- inhibition at 10 µM [4]: 17.6%
- inhibition at 10 µM [5]: 13.8%
- inhibition at 10 µM [6]: 24.3%

SMILES: COc1ccc(COc2cc(O)c3c(=O)cc(C)oc3c2C2CCN(C)CC2O)cc1 (centres unmarked) [Compound 3, 7-(4-Methoxybenzyloxy)-5-hydroxy-8-(3-hydroxy-1-methylpiperidin-4-yl)-2-methyl-4H-chromen-4-one]
- inhibition at 10 µM [1]: 35.2%
- inhibition at 10 µM [2]: 15.6%
- inhibition at 10 µM [4]: 8.43%
- inhibition at 10 µM [5]: 15.7%
- inhibition at 10 µM [6]: 22.8%

SMILES: Cc1cc(=O)c2c(O)cc(OCc3ccc(Br)cc3)c(C3CCN(C)CC3O)c2o1 (centres unmarked) [Compound 4, 7-(4-Bromobenzyloxy)-5-hydroxy-8-(3-hydroxy-1-methylpiperidin-4-yl)-2-methyl-4H-chromen-4-one]
- inhibition at 10 µM [1]: 17.1%
- inhibition at 10 µM [2]: 14%
- inhibition at 10 µM [3]: 45.5%
- inhibition at 10 µM [4]: 13%
- inhibition at 10 µM [5]: 13.2%
- inhibition at 10 µM [6]: 26.9%

SMILES: Cc1cc(=O)c2c(O)cc(OCc3ccco3)c(C3CCN(C)CC3O)c2o1 (centres unmarked) [Compound 5, 7-((Furan-2-yl)methoxy)-5-hydroxy-8-(3-hydroxy-1-methylpiperidin-4-yl)-2-methyl-4H-chromen-4-one]
- inhibition at 10 µM [1]: 14.1%
- inhibition at 10 µM [2]: 5.73%
- inhibition at 10 µM [3]: 36.8%
- inhibition at 10 µM [4]: 16.9%
- inhibition at 10 µM [5]: 6.61%
- inhibition at 10 µM [6]: 31.9%

SMILES: Cc1cc(=O)c2c(O)cc(OCc3cccs3)c(C3CCN(C)CC3O)c2o1 (centres unmarked) [Compound 6, 7-((Thiophen-2-yl)methoxy)-5-hydroxy-8-(3-hydroxy-1-methylpiperidin-4-yl)-2-methyl-4H-chromen-4-one]
- inhibition at 10 µM [1]: 22.8%
- inhibition at 10 µM [2]: 19.8%
- pIC50 [3]: 5.10
- inhibition at 10 µM [3]: 53.8%
- inhibition at 10 µM [4]: 33.3%
- inhibition at 10 µM [5]: 13.2%
- inhibition at 10 µM [6]: 22.2%

SMILES: Cc1cc(=O)c2c(O)cc(OC/C=C/c3ccccc3)c(C3CCN(C)CC3O)c2o1 (centres unmarked) [Compound 7, 7-(Cinnamyloxy)-5-hydroxy-8-(3-hydroxy-1-methylpiperidin-4-yl)-2-methyl-4H-chromen-4-one]
- inhibition at 10 µM [1]: 18.3%
- inhibition at 10 µM [2]: 7.02%
- inhibition at 10 µM [3]: 21.8%
- inhibition at 10 µM [4]: 9.49%
- inhibition at 10 µM [5]: 11.2%
- inhibition at 10 µM [6]: 21%

SMILES: Cc1cc(=O)c2c(O)cc(OCc3ccc([N+](=O)[O-])cc3)c(C3CCN(C)CC3O)c2o1 (centres unmarked) [Compound 8, 7-(4-Nitrobenzyloxy)-5-hydroxy-8-(3-hydroxy-1-methylpiperidin-4-yl)-2-methyl-4H-chromen-4-one]
- inhibition at 10 µM [1]: 23%
- inhibition at 10 µM [2]: 39.3%
- inhibition at 10 µM [3]: 37.5%
- inhibition at 10 µM [4]: 13.6%
- inhibition at 10 µM [5]: 12.4%
- inhibition at 10 µM [6]: 14.4%

SMILES: Cc1cc(=O)c2c(O)cc(OCc3ccccc3Br)c(C3CCN(C)CC3O)c2o1 (centres unmarked) [Compound 9, 7-(2-Bromobenzyloxy)-5-hydroxy-8-(3-hydroxy-1-methylpipetidin-4-yl)-2-methyl-4H-chromen-4-one]
- inhibition at 10 µM [1]: 31.7%
- inhibition at 10 µM [2]: 45.4%
- pIC50 [3]: 4.92
- inhibition at 10 µM [3]: 58.6%
- inhibition at 10 µM [4]: 35.1%
- inhibition at 10 µM [5]: 29.7%
- inhibition at 10 µM [6]: 3.05%

SMILES: Cc1cc(=O)c2c(O)cc(OCc3nc4ccccc4[nH]3)c(C3CCN(C)CC3O)c2o1 (centres unmarked) [Compound 10, 7-((1H-Benzo[d]imidazol-2-yl)methoxy)-5-hydroxy-8-(3-hydroxy-1-methylpiperidin-4-yl)-2-methyl-4H-chromen-4-one]
- pIC50 [6]: 5.10

SMILES: Cc1cc(=O)c2c(O)cc(OC(=O)c3ccco3)c(C3CCN(C)CC3O)c2o1 (centres unmarked) [Compound 11, 5-Hydroxy-8-(3-hydroxy-1-methylpiperidin-4-yl)-2-methyl-4-oxo-4H-chromen-7-yl furan-2-carboxylate]
- inhibition at 10 µM [1]: 15.1%
- inhibition at 10 µM [2]: 2.86%
- inhibition at 10 µM [3]: 11.2%
- inhibition at 10 µM [4]: 1.96%
- inhibition at 10 µM [5]: 16.1%
- inhibition at 10 µM [6]: 80.2%

SMILES: Cc1cc(=O)c2c(O)cc(OC(=O)c3ccccc3C)c(C3CCN(C)CC3O)c2o1 (centres unmarked) [Compound 12, 5-Hydroxy-8-(3-hydroxy-1-methylpiperidin-4-yl)-2-methyl-4-oxo-4H-chromen-7-yl 2-methylbenzoate]
- inhibition at 10 µM [1]: 18.6%
- inhibition at 10 µM [2]: 13.4%
- inhibition at 10 µM [3]: 42%
- inhibition at 10 µM [4]: 6.53%
- inhibition at 10 µM [5]: 7.19%
- inhibition at 10 µM [6]: 12.8%

SMILES: Cc1oc2c(C3CCN(C)CC3O)c(O)cc(O)c2c(=O)c1C(O)c1ccc([N+](=O)[O-])cc1 (centres unmarked) [Compound 13, 5,7-Dihydroxy-3-(hydroxy(4-nitrophenyl)methyl)-8-(3-hydroxy-1-methylpiperidin-4-yl)-2-methyl-4H-chromen-4-one]
- inhibition at 10 µM [1]: 23.8%
- inhibition at 10 µM [2]: 4.03%
- inhibition at 10 µM [3]: 35.9%
- inhibition at 10 µM [4]: 5.08%
- inhibition at 10 µM [5]: 2.48%
- inhibition at 10 µM [6]: 0%

SMILES: Cc1oc2c(C3CCN(C)CC3O)c(O)cc(O)c2c(=O)c1C(O)c1ccc(Cl)cc1 (centres unmarked) [Compound 14, 3-((4-Chlorophenyl)(hydroxy)methyl)-5,7-dihydroxy-8-(3-hydroxy-1-methylpiperidin-4-yl)-2-methyl-4H-chromen-4-one]
- inhibition at 10 µM [1]: 41%
- inhibition at 10 µM [2]: 5.91%
- inhibition at 10 µM [3]: 34.2%
- inhibition at 10 µM [4]: 2.83%
- inhibition at 10 µM [5]: 14.8%
- pIC50 [6]: 4.96
- inhibition at 10 µM [6]: 1.93%

SMILES: Cc1oc2c(C3CCN(C)CC3O)c(O)cc(O)c2c(=O)c1C(O)c1ccccc1Br (centres unmarked) [Compound 15, 3-((2-Bromophenyl)(hydroxy)methyl)-5,7-dihydroxy-8-(3-hydroxy-1-methylpiperidin-4-yl)-2-methyl-4H-chromen-4-one]
- inhibition at 10 µM [1]: 44.5%
- inhibition at 10 µM [2]: 20.6%
- inhibition at 10 µM [3]: 22.4%
- inhibition at 10 µM [4]: 6.62%
- inhibition at 10 µM [5]: 10.1%
- inhibition at 10 µM [6]: 52%

SMILES: Cc1oc2c(C3CCN(C)CC3O)c(O)cc(O)c2c(=O)c1C(O)c1c(Cl)cccc1Cl (centres unmarked) [Compound 20, 3-((2,6-dichlorophenyl)(hydroxy)methyl)-5,7-dihydroxy-8-(3-hydroxy-1-methylpiperidin-4-yl)-2-methyl-4H-chromen-4-one]
- pIC50 [1]: 5.30

SMILES: CN1CCC(c2c(O)cc(O)c3c(=O)cc(/C=C/c4ccccc4)oc23)C(O)C1 (centres unmarked) [Compound 31, 2-styryl-5,7-dihydroxy-8-(3-hydroxy-1-methylpiperidin-4-yl)-4H-chromen-4-one]
- pIC50 [1]: 4.24
- pIC50 [2]: 4.51
- pIC50 [3]: 5.36
- pIC50 [4]: 5.43
- pIC50 [6]: 6.00

SMILES: CN1CCC(c2c(O)cc(O)c3c(=O)cc(/C=C/c4ccc(Cl)cc4)oc23)C(O)C1 (centres unmarked) [Compound 32, 2-(4-Chlorostyryl)-5,7-dihydroxy-8-(3-hydroxy-1-methylpiperidin-4-yl)-4H-chromen-4-one]
- pIC50 [1]: 4.51
- pIC50 [2]: 4.31
- pIC50 [3]: 4.52
- pIC50 [4]: 5.25
- pIC50 [6]: 5.10
